The text below walks through data of patent publication US20110105389A1 (priority 2009, published 2011).

Several values for one entry are separate records, joined by “and”; a condition that tells them apart may be missing. Identical values can stand only once.

One series deals with CYP2D6 (Homo sapiens, UniProt P10635). Put plainly: biochemical.
A further series addresses CYP3A4 (Homo sapiens, UniProt P08684). Put plainly: biochemical.
The test system of series [1] is rat stomach fundus strips. Nature of the series: Ex-vivo potency evaluation on the rat stomach fundus (inhibition of ghrelin-induced contractility), Method B10. To be noted: EFS. The procedure, abridged: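 Male Wistar rat fundus strips in Krebs at 37 °C (5% CO2 in O2), 1.5 g resting tension, were subjected to EFS (0.5 ms pulses, 5 Hz, 70 V, 30 s every 3 min) with isometric tension recording. Responses were expressed as % of mean pre-drug EFS responses; IC50 for inhibiting ghrelin-induced contractility was determined.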

Series [2] deals with T1, ghrelin receptor (HEK-GHSR1 stable cells) (Homo sapiens, UniProt Q92847).
T1 construct: expressed in transfected cells
Nature of the series: Ghrelin receptor inverse agonist assay (HTRF IP-one), Method B4. It is filed as cell-based. The procedure, abridged:
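HEK cells stably expressing GHSR1, seeded at 100 000 cells/well overnight, exposed to compound for 30 min at 37° C. Cells then lysed and IP1 accumulation measured by HTRF (d2 plus anti-IP1 cryptate, 1 h at room temp). Wells lacking d2 served as negative control.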
(In general: TR-FRET usually uses a lanthanide donor and a delayed reading to cut background.)

Series [3] can be described thus: Plasma protein binding (equilibrium dialysis), Method B5. The class given is in vitro ADME. To be noted: human plasma, 60 min at 37° C., typically 10 μM. From the text: B5. Plasma Protein Binding
The pharmacokinetic and pharmacodynamic properties of drugs are largely a function of the reversible binding of drugs to plasma or serum proteins such as albumin and α1-acid glycoprotein. In general, only unbound drug is available for diffusion or transport across cell membranes, and for interaction at the pharmacological target. On the other hand, drugs with low plasma protein binding generally have large volumes of distribution and rapid clearance since only unbound drug is available for glomerular filtration and, in some cases, hepatic clearance. Thus, the extent of plasma protein binding can influence efficacy, distribution and elimination. The ideal range for plasma protein binding is in the range of 87-98% for most drug products.
Protein binding studies were performed using human plasma. Briefly, 96-well microplates were used to incubate various concentrations of the test article for 60 min at 37° C. A concentration of 10 μM was a typical selection to be employed in this study. Bound and unbound fractions are separated by equilibrium dialysis, where the concentration remaining in the unbound fraction is quantified by LC-MS or LC-MS-MS analysis. […].

Series [4] can be described thus: Pharmacokinetic analysis (intravenous and oral), Method B9. The class given is in vivo. In a few lines: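 Compound concentration was typically 2 mg/mL for intravenous and 8 mg/mL for oral dosing. PK parameters such as elimination half-life and total plasma clearance were derived.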
[5] abbreviates: plasma, Table 10b, 2 mg/mL intravenous typically employed.

T1 sequence (Q92847 whole entry): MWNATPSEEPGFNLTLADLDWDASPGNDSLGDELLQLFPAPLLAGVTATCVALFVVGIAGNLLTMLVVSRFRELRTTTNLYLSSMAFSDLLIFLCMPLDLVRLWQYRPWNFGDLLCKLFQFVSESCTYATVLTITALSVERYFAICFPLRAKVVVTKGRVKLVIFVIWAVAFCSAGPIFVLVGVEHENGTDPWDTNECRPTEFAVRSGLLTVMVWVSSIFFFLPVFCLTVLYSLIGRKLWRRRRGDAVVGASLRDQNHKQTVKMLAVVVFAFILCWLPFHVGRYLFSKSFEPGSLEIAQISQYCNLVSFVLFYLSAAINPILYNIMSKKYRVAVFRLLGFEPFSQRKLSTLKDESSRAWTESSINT
CYP3A4, sequence (P08684 whole entry): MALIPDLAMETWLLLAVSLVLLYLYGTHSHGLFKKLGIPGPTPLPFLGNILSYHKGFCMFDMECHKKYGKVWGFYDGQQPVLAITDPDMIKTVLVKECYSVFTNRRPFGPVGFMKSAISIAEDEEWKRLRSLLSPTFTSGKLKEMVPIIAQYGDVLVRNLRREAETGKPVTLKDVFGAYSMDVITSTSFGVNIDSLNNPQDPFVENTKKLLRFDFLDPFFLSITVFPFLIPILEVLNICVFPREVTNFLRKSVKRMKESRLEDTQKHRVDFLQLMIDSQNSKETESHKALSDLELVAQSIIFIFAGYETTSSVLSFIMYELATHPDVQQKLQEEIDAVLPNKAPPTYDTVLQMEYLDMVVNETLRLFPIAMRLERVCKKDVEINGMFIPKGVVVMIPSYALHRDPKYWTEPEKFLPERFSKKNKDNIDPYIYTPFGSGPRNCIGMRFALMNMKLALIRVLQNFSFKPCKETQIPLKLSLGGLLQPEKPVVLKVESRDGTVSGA
CYP2D6, sequence (P10635 whole entry): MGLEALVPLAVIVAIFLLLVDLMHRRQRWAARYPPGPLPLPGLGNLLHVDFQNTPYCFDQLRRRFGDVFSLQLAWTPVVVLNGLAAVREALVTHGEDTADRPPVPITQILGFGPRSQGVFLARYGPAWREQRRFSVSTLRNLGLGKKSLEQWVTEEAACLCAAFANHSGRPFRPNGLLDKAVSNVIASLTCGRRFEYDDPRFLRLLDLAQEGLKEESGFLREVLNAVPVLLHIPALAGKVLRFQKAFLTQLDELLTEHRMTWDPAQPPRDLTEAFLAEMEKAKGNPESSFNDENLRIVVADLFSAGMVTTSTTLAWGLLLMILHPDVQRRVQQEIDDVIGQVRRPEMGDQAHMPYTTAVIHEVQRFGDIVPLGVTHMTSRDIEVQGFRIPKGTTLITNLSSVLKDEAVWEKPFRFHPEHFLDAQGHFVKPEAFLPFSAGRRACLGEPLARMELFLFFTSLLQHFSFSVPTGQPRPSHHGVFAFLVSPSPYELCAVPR

As a reminder, the IC50 is the concentration at which inhibition is half-maximal. Low values mean inhibition by little substance, high ones a need for much substance. The fraction unbound is free concentration divided by total concentration. Take `Cc1cccc(C[C@H]2NC(=O)[C@H](C(C)O)N(C)C(=O)[C@H](C(C)C)NCCOc3ccccc3C[C@H](O)CNC2=O)c1` (stereo partly drawn) [Compound 1453]: the half-inhibitory concentration (IC50) is 9.21 µM and 9.2 µM against CYP2D6; 13.4 µM and 3.7 µM on CYP3A4; 2.9 µM in series [1]; 0.01 to 0.05 µM in series [2]. The fraction unbound at 60 min, 10 μM in series [3] is 0.243.

For `CC(C)[C@@H]1NCCOc2ccccc2C[C@H](O)[C@@H](C)NC(=O)[C@@H](Cc2cccc(F)c2)NC(=O)[C@H](C(C)O)N(C)C1=O` (stereo partly drawn) [Compound 1503], the IC50 on CYP2D6 was 55.8 µM; on CYP3A4, 14.3 µM; in series [1], 0.65 µM; in series [2], 0.01 to 0.05 µM. Also, the fraction unbound at 60 min, 10 μM in series [3] is 0.221.

One may read the half-life as how long it takes for the measured level to halve. In the case of `CC[C@@H]1CCc2ccc(F)cc2OCCN[C@@H](C(C)C)C(=O)N(C)[C@@H](C(C)O)C(=O)N[C@H](Cc2c[nH]c3ccccc23)C(=O)N1` (stereo partly drawn) [Compound 1505], the IC50 against CYP2D6 was 2.1 µM; on CYP3A4, 0.7 µM; in series [1] it was 0.0125 µM; in series [2] it was 0.1 to 0.5 µM. The “Oral F” value in series [4] (in vivo, po) was 18%. This compound also displayed a half-life in series [4] (plasma) of 1.07 h. In series [4] (plasma, intravenous), this compound showed a clearance of 23 mL/min/kg. In series [3], this compound showed a fraction unbound at 60 min, 10 μM of 0.036.

In the case of `CC(C)[C@@H]1NCCOc2ccccc2C#C[C@@H](C)NC(=O)[C@@H](Cc2ccccc2)NC(=O)[C@H](C(C)O)N(C)C1=O` (stereo partly drawn) [Compound 1688], the IC50 at CYP2D6 is 20.2 µM; on CYP3A4 it was 8.5 µM; in series [1], 0.0001 µM; in series [2] it was 0.05 to 0.1 µM. For the same compound, the fraction unbound at 60 min, 10 μM in series [3] was 0.091.

As to `CC(O)[C@H]1C(=O)N[C@H](Cc2ccccc2)C(=O)NCCCc2cccc3c2OC(CC3)CN[C@@H](C2CC2)C(=O)N1C` (stereo partly drawn) [Compound 1778], the IC50 is 21.1 µM against CYP2D6, 7.7 µM against CYP3A4, 0.012 µM in series [1] and 0.1 to 0.5 µM in series [2]. Moreover, in series [4] (setting [5]), the clearance was 26 ± 18 mL/min/kg. In series [4] (setting [5]), this compound showed a half-life of 0.983 ± 0.633 h. Moreover, the fraction unbound at 60 min, 10 μM in series [3] was 0.076.

With `CC[C@@H]1NCC2CCc3cccc(c3O2)CCCNC(=O)[C@@H](Cc2ccccc2)NC(=O)[C@H](C(C)O)N(C)C1=O` (stereo partly drawn) [Compound 1780], the IC50 against CYP2D6 was 35.7 µM; against CYP3A4, 6 µM; in series [1] it was 0.0121 µM; in series [2], 0.05 to 0.1 µM. The compound also had a fraction unbound at 60 min, 10 μM in series [3] of 0.061.

One may read the AUC(0-inf) as total exposure, with the tail of the curve extrapolated. A low value points to less exposure. By Cmax is commonly meant the highest concentration seen after dosing. `CC(C)[C@@H]1NCCOc2ccccc2C2CCC(C2)NC(=O)[C@@H](Cc2ccccc2)NC(=O)[C@H](C(C)O)N(C)C1=O` (stereo partly drawn) [Compound 1848]: the IC50 at CYP2D6 was 14.1 µM; at CYP3A4, 8 µM; in series [1], 0.015 µM. Moreover, the F in series [4] (Oral, 8 mg/kg) is 11 ± 2%. The Tmax in series [4] (Oral, 8 mg/kg, individual values) was 30/30. For the same compound, the AUC(0-inf) is 2600 ng·h/mL in series [4] (plasma, Intravenous, 2 mg/kg) and 1110 ng·h/mL in series [4] (plasma, Oral, 8 mg/kg). For the same compound, the clearance in series [4] (plasma, Intravenous, 2 mg/kg) turned out to be 17 ± 9 mL/min/kg. In series [4] (plasma, Intravenous, 2 mg/kg), this compound came in with a half-life of 1.8 ± 0.85 h. Moreover, the Vd in series [4] (plasma, Intravenous, 2 mg/kg, read-out: Vz) worked out at 2.55 ± 1.47 L/kg. The Cmax in series [4] (plasma, Oral, 8 mg/kg, read-out: Cmax) is 421 ± 16 ng/mL. The same compound had a fraction unbound at 60 min, 10 μM in series [3] of 0.207.

For `CC(C)[C@@H]1NCCOc2ccccc2C2CCC(C2)NC(=O)[C@@H](Cc2ccc(F)cc2)NC(=O)[C@H](C(C)O)N(C)C1=O` (stereo partly drawn) [Compound 1903], the IC50 on CYP2D6 worked out at 8 µM; at CYP3A4, 9 µM; in series [1], 0.0016 µM. For the same compound, the fraction unbound at 60 min, 10 μM in series [3] is 0.159.

As for `CC(O)[C@H]1C(=O)N[C@H](Cc2ccccc2)C(=O)NCC#Cc2ccc(F)cc2OCCN[C@@H](C2(C)CC2)C(=O)N1C` (stereo partly drawn) [Compound 1918], the concentration for half-maximal inhibition (IC50) is 8.1 µM against CYP2D6, 16.3 µM on CYP3A4, 0.026 µM in series [1] and 0.05 to 0.1 µM in series [2]. In series [4] (setting [5]), the clearance turned out to be 14 ± 7 mL/min/kg. Further, the half-life in series [4] (setting [5]) came to 1.9 ± 0.883 h.
